According to patent publication US10722484B2, “Methods of cancer treatment” (K-Gen, Inc., priority 2016, dated 2020):
Read-outs that look alike come from different tables or passages of the source. Each block holds one compound with its values, some of them ahead of it.

How the values were obtained:
A549 cells = assay: Soft agar colony formation assay; type: cell-based; details: 7-10 days, 9-point 3-fold dilution series
Description: To prepare a base agar layer (0.6%), melted 1.2% agar solution was mixed 1:1 (v/v) with 2×DMEM/20% FBS medium in a tube by inverting several times, and 50 μL of the mixture was immediately transferred to a well in a 96-well flat-bottom microplate. The plate was placed at 4° C. for 30 minutes to allow the base agar layer to solidify. Then, the cell agar layer (agar 0.4%) was prepared by transferring 75 μL of the cell and agar mixture containing 1:1:1 (v/v/v) of 1.2% agar solution, 2×DMEM/20% FBS and cell suspension (0.4-4×10E5/mL) to each well of the plates so that each well contained 1000-10000 cells per well. The plates were placed at 4° C. for 15 minutes and then 75 μL of media was added to each well. After incubating the plates overnight in a CO2 incubator, 50 μL of media with or without 5× final concentrations of compounds were added to each well. Each compound was tested in 9-point 3-fold dilution series. The plates were incubated for 7-10 days at 37° C. At the end of incubation period, 28 μL of Calcein AM solution (5 μM) was added to the center of each well. The plates were incubated at 37° C. for 45 minutes before scanning on Acumen (TTP Labtech). Each compound was tested in triplicates. Data was analyzed and compound EC50s were calculated using GraphPad Prism 5.

[1] = tested on: leukemia inhibitory factor (LIF); assay: Western blot analysis of PKC signaling pathway elements in A549 cells; type: cell-based; details: Western blot, concentrations of Table 8 (K101A 0.1, 0.5, […]; K101E […]; K102 0.1, 0.5 μM; K103 0.01 μM; Ref1 1 μM; Ref2 0.01 μM)
Description: Cancer cells (2-8 million cells) were seeded in 10 cm dishes and grown overnight. For A549 lung cancer cell line, about 3 million cells were seeded. Cells were then treated with different drugs at concentrations described in Table 8 for a period of time up to 48 hours. Cells were lysed in 0.3-0.5 mL of RIPA buffer (Sigma) supplemented with protease inhibitors (Roche) and phosphatase inhibitors (Sigma). Lysates were assayed for protein concentration using BCA kit (Pierce). Normalized amount of lysates (20-30 μg protein/lane) were run on 4-12% NuPage gel (Life Technologies) and the proteins were transferred to the PVDF or nitrocellulose membrane using iBlot® Transfer Stack (Life Technologies). The membranes were probed with primary antibodies shown in Table 9 at 4° C. overnight after blocking with 1×TBST containing 5% non-fat milk. Antibodies from other vendors could also be used in Western blot analysis. After washing 5 times with 1×TBS containing 0.1% Tween20, the membranes were probed with 2nd antibodies Anti-mouse IgG Dylight 800 conjugate or Anti-rabbit IgG DyLight 680 conjugate (1:10000; Cell signaling or similar IR 2nd antibodies from different vendors) at room temperature for one hour. After washing 5 times, the membranes were scanned using Odyssey® Imaging System (Licor Biosciences).

AsPC-1 = assay: Proliferation assay (CellTiter Glo); type: cell-based; details: 96 hours; for Top Inhibition %: % of top inhibition
Description: (§1) The dose range for most compounds was 4.6 nM-30 μM. The dose ranges for some compounds were adjusted downward to 0.46 nM-3 μM or 0.08 nM-0.5 μM or 0.03 nM-0.2 μM. […] The results are shown in Tables 3-6 for pancreatic cancer, lung cancer, colon/gastric cancer, and leukemia.

Pan2.03 = assay: Proliferation assay (CellTiter Glo); type: cell-based; details: 96 hours; for Top Inhibition %: % of top inhibition
Description: as §1

Capan-1 = assay: Proliferation assay (CellTiter Glo); type: cell-based; details: 96 hours; for Top Inhibition %: % of top inhibition
Description: as §1

H441 = assay: Proliferation assay (CellTiter Glo); type: cell-based; details: 96 hours; for Top Inhibition %: % of top inhibition
Description: as §1

CCRF-CEM = assay: Proliferation assay (CellTiter Glo); type: cell-based; details: 96 hours; for Top Inhibition %: % of top inhibition
Description: as §1

KP-4 = assay: Proliferation assay (CellTiter Glo); type: cell-based; details: 96 hours; for Top Inhibition %: % of top inhibition
Description: as §1

H727 = assay: Proliferation assay (CellTiter Glo); type: cell-based; details: 96 hours; for Top Inhibition %: % of top inhibition
Description: as §1

A549 = assay: Proliferation assay (CellTiter Glo); type: cell-based; details: 96 hours; for Top Inhibition %: % of top inhibition
Description: as §1

HCT116 = assay: Proliferation assay (CellTiter Glo); type: cell-based; details: 96 hours; for Top Inhibition %: % of top inhibition
Description: as §1

H358 = assay: Proliferation assay (CellTiter Glo); type: cell-based; details: HE58, 96 hours; for Top Inhibition %: % of top inhibition
Description: as §1

THP1 = assay: Proliferation assay (CellTiter Glo); type: cell-based, human; details: 96 hours; for Top Inhibition %: % of top inhibition
Description: as §1

HL60 = assay: Proliferation assay (CellTiter Glo); type: cell-based, human; details: 96 hours; for Top Inhibition %: % of top inhibition
Description: as §1

[2] = Pan2.03 (K-RAS: G12D), absolute EC50, read-out: Ab EC50
[3] = Pan2.03, relative EC50, read-out: Re EC50

SMILES: CC(=O)OCC1=CC2C3C(C)(C)C3(OC(C)=O)CC(C)C2(O)C2C=C(C)C(=O)C2(O)C1 (centres unmarked) [Compound K101E]
number of colonies formed in soft agar (A549 cells): reduced the number of colonies formed by A549 cells in a dose-dependent manner | protein levels of the leukemia inhibitory factor (LIF) [1]: did not affect | EC50 (AsPC-1; AsPC-1 (K-RAS: G12D), absolute EC50, read-out: Ab EC50): > 30000 nM | Top Inhibition % (AsPC-1; AsPC-1): 35.2% | EC50 (AsPC-1; AsPC-1, relative EC50, read-out: Re EC50): 2780 nM | EC50 (Pan2.03; [2]): > 30000 nM | Top Inhibition % (Pan2.03; Pan2.03): 36.5% | EC50 (Pan2.03; [3]): 1920 nM | EC50 (Capan-1; Capan-1 (K-RAS: G12V), absolute EC50, read-out: Ab EC50): > 30000 nM | Top Inhibition % (Capan-1; Capan-1): 44.6% | EC50 (Capan-1; Capan-1, relative EC50, read-out: Re EC50): 830 nM | EC50 (H441; H441 (K-RAS: G12V), absolute EC50, read-out: Ab EC50): > 30000 nM | Top Inhibition % (H441; H441): 49.1% | EC50 (H441; H441, relative EC50, read-out: Re EC50): 2610 nM | EC50 (CCRF-CEM; CCRF-CEM (K-RAS: G12D), absolute EC50, read-out: Ab EC50): > 30000 nM | Top Inhibition % (CCRF-CEM; CCRF-CEM): 34.3% | EC50 (CCRF-CEM; CCRF-CEM, relative EC50, read-out: Re EC50): 270 nM | EC50 (KP-4; KP-4 (K-RAS: G12C), absolute EC50, read-out: Ab EC50): 1280 nM | Top Inhibition % (KP-4; KP-4): 69.1% | EC50 (KP-4; KP-4, relative EC50, read-out: Re EC50): 680 nM | EC50 (H727; H727 (K-RAS: G12V), absolute EC50, read-out: Ab EC50): > 30000 nM | Top Inhibition % (H727; H727): 49.1% | EC50 (H727; H727, relative EC50, read-out: Re EC50): 620 nM | EC50 (A549; A549 (K-RAS: G12S), absolute EC50, read-out: Ab EC50): 2640 nM | Top Inhibition % (A549; A549): 78.7% | EC50 (A549; A549, relative EC50, read-out: Re EC50): 1560 nM | EC50 (HCT116; HCT116 (K-RAS: G13D), absolute EC50, read-out: Ab EC50): > 30000 nM | Top Inhibition % (HCT116; HCT116): 27.4% | EC50 (HCT116; HCT116, relative EC50, read-out: Re EC50): 6640 nM | Top Inhibition % (H358): 47.9% | EC50 (H358; absolute EC50, read-out: Ab EC50): > 30000 nM | EC50 (H358; relative EC50, read-out: Re EC50): 1250 nM | EC50 (THP1; THP1 (N-RAS: G12D), absolute EC50, read-out: Ab EC50): 3600 nM | Top Inhibition % (THP1; THP1): 51.6% | EC50 (THP1; THP1, relative EC50, read-out: Re EC50): 1020 nM | EC50 (HL60; HL60 (N-RAS: Q61L), absolute EC50, read-out: Ab EC50): 3050 nM | Top Inhibition % (HL60; HL60): 63.4% | EC50 (HL60; HL60, relative EC50, read-out: Re EC50): 1920 nM

EC50 (AsPC-1; Homo sapiens, ASPC1, AsPC-1 (K-RAS: G12D), absolute EC50, read-out: Ab EC50): 10 nM | EC50 (AsPC-1; Homo sapiens, ASPC1, AsPC-1, relative EC50, read-out: Re EC50): 3.8 nM | EC50 (H441; Homo sapiens, NCI-H441, H441 (K-RAS: G12V), absolute EC50, read-out: Ab EC50): 35.8 nM | EC50 (H441; Homo sapiens, NCI-H441, H441, relative EC50, read-out: Re EC50): 3.5 nM | EC50 (CCRF-CEM; Homo sapiens, CCRF-CEM (K-RAS: G12D), absolute EC50, read-out: Ab EC50): 4 nM | EC50 (CCRF-CEM; Homo sapiens, CCRF-CEM, relative EC50, read-out: Re EC50): 3.9 nM | EC50 (H727; Homo sapiens, NCI-H727, H727 (K-RAS: G12V), absolute EC50, read-out: Ab EC50): > 500 nM | EC50 (H727; Homo sapiens, NCI-H727, H727, relative EC50, read-out: Re EC50): 2.3 nM | EC50 (A549; Homo sapiens, A549 (K-RAS: G12S), absolute EC50, read-out: Ab EC50): 2.6 nM | EC50 (A549; Homo sapiens, A549, relative EC50, read-out: Re EC50): 2.3 nM | EC50 (HCT116; Homo sapiens, HCT-116, HCT116 (K-RAS: G13D), absolute EC50, read-out: Ab EC50): 2.2 nM | EC50 (HCT116; Homo sapiens, HCT-116, HCT116, relative EC50, read-out: Re EC50): 2.1 nM | EC50 (H358; Homo sapiens, NCI-H358, absolute EC50, read-out: Ab EC50): 2.4 nM | EC50 (H358; Homo sapiens, NCI-H358, relative EC50, read-out: Re EC50): 1.8 nM | EC50 (THP1; Homo sapiens, THP-1, THP1 (N-RAS: G12D), absolute EC50, read-out: Ab EC50): 8.3 nM | EC50 (THP1; Homo sapiens, THP-1, THP1, relative EC50, read-out: Re EC50): 7.6 nM | EC50 (HL60; Homo sapiens, HL-60, HL60 (N-RAS: Q61L), absolute EC50, read-out: Ab EC50): 5.2 nM | EC50 (HL60; Homo sapiens, HL-60, HL60, relative EC50, read-out: Re EC50): 5.2 nM
SMILES: CC(=O)O[C@H]1C(=O)[C@@]2(C)[C@H]([C@H](OC(=O)c3ccccc3)[C@]3(O)C[C@H](OC(=O)[C@H](O)[C@@H](NC(=O)c4ccccc4)c4ccccc4)C(C)=C1C3(C)C)[C@]1(OC(C)=O)CO[C@@H]1C[C@@H]2O [Paclitaxel]
Top Inhibition % (AsPC-1; AsPC-1): 60.9% | EC50 (Pan2.03; [2]): 3.3 nM | Top Inhibition % (Pan2.03; Pan2.03): 64.7% | EC50 (Pan2.03; [3]): 1.8 nM | Top Inhibition % (Capan-1; Capan-1): 73.5% | EC50 (Capan-1; Homo sapiens, Capan-1 (K-RAS: G12V), absolute EC50, read-out: Ab EC50): 11 nM | EC50 (Capan-1; Homo sapiens, Capan-1, relative EC50, read-out: Re EC50): 7.2 nM | Top Inhibition % (H441; H441): 51.9% | Top Inhibition % (CCRF-CEM; CCRF-CEM): 97.8% | EC50 (KP-4; Homo sapiens, KP-4 (K-RAS: G12C), absolute EC50, read-out: Ab EC50): 1.9 nM | EC50 (KP-4; Homo sapiens, KP-4, relative EC50, read-out: Re EC50): 1.8 nM | Top Inhibition % (KP-4; KP-4): 96.2% | Top Inhibition % (H727; H727): 49.0% | Top Inhibition % (A549; A549): 86.0% | Top Inhibition % (HCT116; HCT116): 94.8% | Top Inhibition % (H358): 89.2% | Top Inhibition % (THP1; THP1): 91.2% | Top Inhibition % (HL60; HL60): 98.7%
